Experimental data as given in article PMC9405123, “Design, Synthesis and Mechanistic Studies of Novel Isatin-Pyrazole Hydrazone Conjugates as Selective and Potent Bacterial MetAP Inhibitors” (Antibiotics, 2022).
Converted amounts (≈) assume the structure as drawn.

Key:
[1] = target: T1, MtMetAP1c (Mycobacterium tuberculosis, UniProt P9WK19); assay: MetAP enzyme inhibition, Morrison Ki (Met-AMC fluorescence); format: biochemical, M. tuberculosis; conditions: Morrison Ki method
T1 construct: made in house
Description: MetAP appears to serve a vital role in the co- or post-translational modification of proteins, making it essential for bacterial cell metabolism and survival. In this study, all enzymes, which were used for this study, including MtMetAP1c (M. tuberculosis), EfMetAP1a (E. faecalis), SpMetAP1a (S. pneumoniae) and HsMetAP1b (H. sapiens) enzymes, were expressed and purified in our lab as previously reported. All compounds prepared 10 mM stocks in DMSO and were used for enzyme inhibition studies. The concentration of each enzyme is adjusted such that they have similar reaction rates (HsMetAp1b, 1 µM; SpMetAP1a, 5 µM; EfMetAP1a, 1 µM; MtMetAP1c, 1 µM;) as reported earlier. All assays were performed in […] reaction containing 50 mM HEPES (pH 7.5 for SpMetAP1a and HsMetAP1b; 8.0 for EfMetAP1a, MtMetAP1c, […]), 150 mM NaCl, and CoCl2 (three molar equivalents of corresponding enzymes). The reaction was started by adding 50 μM L-Methionine 7-amido-4-methyl coumarin (Met-AMC) and continuously monitoring the fluorescence of released 7-amino-4-methyl coumarin (AMC) (380 nm excitation and 460 nm emission) in a microplate multimode reader (TECAN, Austria). The maximum percentage of inhibition against enzymes is calculated at […] compound concentration. […] The Ki values were determined according to the Morrison method using three different concentrations of substrates and ten different concentrations of the inhibitor. All experiments were performed in triplicate. GraphPad Prism version 8.0.0 (San Diego, CA, USA) was used to determine all the kinetic parameters.

[2] = tested on: K. pneumoniae; assay: Growth inhibition screening (broth dilution); format: cell-based, Klebsiella pneumonia
Outline: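 NCCLS broth dilution in nutrient broth with compounds from DMSO at a final 250 µg/mL. About 2.5 × 10^5 cells/mL were inoculated and incubated overnight at 37 °C. Growth was measured as turbidity at 590 nm.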

[3] = tested on: S. aureus; assay: Minimum inhibitory concentration (broth dilution); format: cell-based; conditions: Staphylococcus aureus, alone
[4] = tested on: E. faecalis; assay: Minimum bactericidal concentration; format: cell-based, Enterococcus faecalis
[5] = tested on: P. aeruginosa; assay: Growth kinetics; format: cell-based, Pseudomonas aeruginosa
Description: (§1) Bacterial strains were tested as mentioned in Habib et al.. Briefly, ½ MIC, MIC and 2MIC values of PS9 were taken to assess the growth of bacterial strains whereas untreated cells and media were taken as positive and negative control, respectively.

[6] = tested on: E. faecalis; assay: Growth kinetics; format: cell-based, Enterococcus faecalis
Description: as §1

[7] = tested on: E. coli; assay: Time-kill curve assay; format: cell-based, Escherichia coli
Description: A time–kill curve study was performed against bacterial strains (E. coli, E. faecalis, K. pneumonia and P. aeruginosa) to determine whether compound PS9 is bactericidal or bacteriostatic. MIC, 2MIC and 4MIC concentrations were employed for the time–kill assay as explained by Ali et al.. Untreated bacterial cells were used as a control. 100 µL aliquot was taken from each flask at regular intervals. An aliquot was further diluted in phosphate buffer saline solution and from each concentration 50 µL aliquot was inoculated on a nutrient agar plate and spread. Colonies were counted after the incubation of the plate at 37 °C. For each strain, the average (mean) colony count data (log10 CFU/mL) was plotted against time.

[8] = tested on: HK1; assay: MBC on environmental MDR isolate
[9] = tested on: HK32; assay: MBC on environmental MDR isolate; conditions: Enterobacter cloacae
[10] = tested on: SH28; assay: MBC on environmental MDR isolate; conditions: Aeromonas caviae
[11] = tested on: B. subtilis; assay: Combination study with AMP or CIP
[12] = tested on: S. aureus; assay: Combination study with AMP or CIP
[13] = tested on: HK32; assay: MIC on environmental MDR isolate (microdilution); conditions: Enterobacter cloacae
[14] = tested on: HK43; assay: MIC on environmental MDR isolate (microdilution); conditions: Exiguobacterium mexicanum
[15] = tested on: SH34; assay: MIC on environmental MDR isolate (microdilution); conditions: Serratia marcescens
[16] = tested on: LG20; assay: MIC on environmental MDR isolate (microdilution)
[17] = tested on: LG24; assay: MIC on environmental MDR isolate (microdilution); conditions: Escherichia coli
[18] = tested on: LG33; assay: MIC on environmental MDR isolate (microdilution); conditions: Enterobacter
[19] = tested on: LG51; assay: MIC on environmental MDR isolate (microdilution); conditions: Escherichia coli
[20] = tested on: JST78; assay: MIC on environmental MDR isolate (microdilution); conditions: Escherichia coli
[21] = tested on: P. aeruginosa PAO1; assay: In vivo antibacterial efficacy in infected larvae; conditions: P. aeruginosa infected larvae (1.5 × 10^9 CFU/mL); PS9 1000 μg/mL; 48 and 72 h

T1 sequence (P9WK19 whole entry): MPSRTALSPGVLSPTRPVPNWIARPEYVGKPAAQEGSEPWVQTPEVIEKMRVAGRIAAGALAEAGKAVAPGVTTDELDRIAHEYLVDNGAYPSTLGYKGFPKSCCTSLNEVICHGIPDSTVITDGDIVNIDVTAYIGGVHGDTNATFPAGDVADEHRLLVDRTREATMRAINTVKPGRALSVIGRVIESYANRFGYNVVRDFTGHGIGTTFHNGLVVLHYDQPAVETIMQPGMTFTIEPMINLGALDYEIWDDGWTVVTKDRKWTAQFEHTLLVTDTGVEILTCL

In the case of O=C1Nc2ccc(F)cc2/C1=N\NC(=O)c1cc(-c2cccc(Br)c2)n[nH]1 [PS9, (E)-3-(3-Bromophenyl)-N′-(5-Fluoro-2-Oxoindolin-3-Ylidene)-1H-Pyrazole-5-Carbohydrazide], the Ki [1] is reported as 310 nM, the inhibition at 250 µg/mL ([2]; Klebsiella pneumoniae) is reported as no less than 94% and the “% Growth Inhibition at 250 µg/mL” value ([2]; listed as C00009) is reported as 94%. For the same compound, the MIC [3] was 32 µg/mL (≈ 74.7 µM), the “MBC/MIC Ratio (R*)” value [4] was 4 and the MBC ([4]; Enterococcus faecalis) was 32 µg/mL (≈ 74.7 µM). The growth ([5]; 2MIC and MIC) was “no growth observed up to 24 h”, the “time after inoculation at which log phase was observed” value ([5]; ½ MIC) was 8 h and the growth ([6]; 2MIC) was “no growth was observed in both cultures at 2MIC concentration till 24 h”. The growth ([6]; MIC) was “no significant growth was found at MIC up to 10 h”, the “killing (log10 CFU/mL with time)” value ([7]; 4MIC, after 16 h) was “significant eradication” and the “killing (log10 CFU/mL with time)” value ([7]; MIC, till 16 h) was “no 100% eradication”. The MBC [8] was 512 µg/mL (≈ 1200 µM), the MBC [9] was 64 µg/mL (≈ 149 µM) and the MBC [10] was 512 µg/mL (≈ 1200 µM). For the same compound, the “MIC in Combination” value ([11]; combination PS9 + AMP) was 4 µg/mL, the “MIC in Combination” value ([11]; combination PS9 + CIP) was 8 µg/mL and the FICI ([11]; combination with AMP) was 0.62. For the same compound, the “Mode of Interaction” value ([11]; combination with AMP) was “Indifferent (in between 0.5 and 4)”, the FICI ([11]; combination with CIP) was 4.25 and the “MIC in Combination” value ([12]; combination PS9 + AMP) was 4 µg/mL. For the same compound, the “MIC in Combination” value ([12]; combination PS9 + CIP) was 8 µg/mL, the FICI ([12]; combination with AMP) was 0.37 and the FICI ([12]; combination with CIP) was 0.28. For the same compound, the MIC [13] was 64 µg/mL (≈ 149 µM), the MIC [14] was 16 µg/mL (≈ 37.4 µM) and the MIC [15] was greater than 1020 µg/mL. For the same compound, the MIC ([16]; Enterobacter, isolate LG20 Enterobacter sp.) was less than 1 µg/mL, the “MIC lower than AMP and CTX” value ([16]; isolate LG20) was 32 times and the MIC [17] was greater than 1020 µg/mL. It also gave an MIC [18] of 1000 µg/mL (≈ 2340 µM), an MIC [19] of 1000 µg/mL (≈ 2340 µM) and an MIC [20] of 1000 µg/mL (≈ 2340 µM). The “effect on death of infected larvae” value [21] was “small protective effect”.
